Legend:
[1] = DRUGMATRIX: Phosphodiesterase PDE3 enzyme inhibition (substrate: [3H]cAMP + cAMP); assay type: tissue-based, Homo sapiens; conditions: platelet; Not Active = under 50% inhibition at 10 µM
[2] = target: Estrogen receptor beta (Homo sapiens, UniProt Q92731); conditions: sf9; also: in other assays of this panel Not Active means under 50% inhibition at 10 µM
[3] = target: Prostaglandin G/H synthase 1 (Homo sapiens, UniProt P23219); assay: biochemical; assay type: tissue-based, Platelet;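 also: inhibition of COX-1 enzyme activity, with arachidonic acid supplied as substrate; in other assays of this panel Not Active means under 50% inhibition at 10 µM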
Prostaglandin G/H synthase 1, sequence (P23219 whole entry): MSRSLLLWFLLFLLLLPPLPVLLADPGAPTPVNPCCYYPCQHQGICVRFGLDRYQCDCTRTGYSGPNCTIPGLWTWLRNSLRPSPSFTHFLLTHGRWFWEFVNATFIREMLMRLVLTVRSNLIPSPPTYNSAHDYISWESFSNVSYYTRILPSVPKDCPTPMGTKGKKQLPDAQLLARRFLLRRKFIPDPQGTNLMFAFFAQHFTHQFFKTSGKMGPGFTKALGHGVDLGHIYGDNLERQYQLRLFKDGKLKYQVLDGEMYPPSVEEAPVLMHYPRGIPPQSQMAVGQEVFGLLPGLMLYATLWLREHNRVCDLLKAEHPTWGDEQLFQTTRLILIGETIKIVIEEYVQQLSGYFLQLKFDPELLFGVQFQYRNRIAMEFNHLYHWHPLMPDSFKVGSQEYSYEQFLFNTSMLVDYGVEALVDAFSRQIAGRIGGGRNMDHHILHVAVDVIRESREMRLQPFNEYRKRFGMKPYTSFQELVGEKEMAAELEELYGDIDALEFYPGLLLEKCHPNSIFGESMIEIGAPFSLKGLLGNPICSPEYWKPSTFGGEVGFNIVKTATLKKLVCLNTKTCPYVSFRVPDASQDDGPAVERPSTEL

[4] = target: T1, 3-hydroxy-3-methylglutaryl-coenzyme A reductase (Homo sapiens, UniProt P04035); set-up: species or system Escherichia coli;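 also: enzyme inhibition assay of HMG-CoA reductase using radiolabeled [14C]HMG-CoA as substrate; in other assays of this panel Not Active means under 50% inhibition at 10 µM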
T1 sequence (P04035 whole entry): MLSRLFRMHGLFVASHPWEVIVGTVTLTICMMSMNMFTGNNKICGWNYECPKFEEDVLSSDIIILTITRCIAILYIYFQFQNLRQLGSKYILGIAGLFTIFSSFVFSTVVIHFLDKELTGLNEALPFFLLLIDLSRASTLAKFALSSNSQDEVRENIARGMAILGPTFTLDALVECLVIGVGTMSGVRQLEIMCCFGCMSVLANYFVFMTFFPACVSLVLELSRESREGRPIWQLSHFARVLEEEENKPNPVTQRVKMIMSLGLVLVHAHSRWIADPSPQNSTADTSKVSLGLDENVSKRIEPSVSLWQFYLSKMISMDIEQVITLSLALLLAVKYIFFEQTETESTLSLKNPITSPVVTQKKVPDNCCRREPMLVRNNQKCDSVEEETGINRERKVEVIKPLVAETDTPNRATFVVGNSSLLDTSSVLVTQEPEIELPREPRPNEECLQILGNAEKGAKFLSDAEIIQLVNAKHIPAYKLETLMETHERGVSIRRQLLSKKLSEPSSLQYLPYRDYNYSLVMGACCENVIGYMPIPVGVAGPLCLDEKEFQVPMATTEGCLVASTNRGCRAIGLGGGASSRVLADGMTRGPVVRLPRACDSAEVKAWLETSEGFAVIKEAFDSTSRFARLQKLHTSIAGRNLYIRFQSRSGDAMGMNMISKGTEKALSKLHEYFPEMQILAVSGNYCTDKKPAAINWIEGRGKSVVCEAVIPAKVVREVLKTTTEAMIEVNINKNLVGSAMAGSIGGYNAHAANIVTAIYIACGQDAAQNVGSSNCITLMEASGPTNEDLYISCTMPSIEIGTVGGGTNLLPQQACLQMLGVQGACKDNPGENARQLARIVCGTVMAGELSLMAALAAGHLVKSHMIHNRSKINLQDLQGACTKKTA

[5] = target: 5-hydroxytryptamine receptor 4 (Cavia porcellus, UniProt O70528); assay type: cell membranes, Dunkin-Hartley, Striatum, Membrane; also: in other assays of this panel Not Active means under 50% inhibition at 10 µM
5-hydroxytryptamine receptor 4, sequence (O70528 whole entry): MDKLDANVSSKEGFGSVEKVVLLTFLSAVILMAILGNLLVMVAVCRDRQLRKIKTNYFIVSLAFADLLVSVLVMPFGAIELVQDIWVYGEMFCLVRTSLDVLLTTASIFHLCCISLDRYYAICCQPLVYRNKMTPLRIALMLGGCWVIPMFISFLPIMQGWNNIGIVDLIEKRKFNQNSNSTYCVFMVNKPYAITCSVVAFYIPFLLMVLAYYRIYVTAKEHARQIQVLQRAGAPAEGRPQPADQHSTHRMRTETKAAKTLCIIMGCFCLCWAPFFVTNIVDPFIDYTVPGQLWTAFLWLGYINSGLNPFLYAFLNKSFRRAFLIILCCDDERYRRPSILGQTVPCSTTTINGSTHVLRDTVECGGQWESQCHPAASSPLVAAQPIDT

[6] = target: T2, Muscarinic acetylcholine receptor M5 (Homo sapiens, UniProt P08912); assay type: cell membranes, CHO-K1, Membrane; also: in other assays of this panel Not Active means under 50% inhibition at 10 µM
T2 sequence (P08912 whole entry): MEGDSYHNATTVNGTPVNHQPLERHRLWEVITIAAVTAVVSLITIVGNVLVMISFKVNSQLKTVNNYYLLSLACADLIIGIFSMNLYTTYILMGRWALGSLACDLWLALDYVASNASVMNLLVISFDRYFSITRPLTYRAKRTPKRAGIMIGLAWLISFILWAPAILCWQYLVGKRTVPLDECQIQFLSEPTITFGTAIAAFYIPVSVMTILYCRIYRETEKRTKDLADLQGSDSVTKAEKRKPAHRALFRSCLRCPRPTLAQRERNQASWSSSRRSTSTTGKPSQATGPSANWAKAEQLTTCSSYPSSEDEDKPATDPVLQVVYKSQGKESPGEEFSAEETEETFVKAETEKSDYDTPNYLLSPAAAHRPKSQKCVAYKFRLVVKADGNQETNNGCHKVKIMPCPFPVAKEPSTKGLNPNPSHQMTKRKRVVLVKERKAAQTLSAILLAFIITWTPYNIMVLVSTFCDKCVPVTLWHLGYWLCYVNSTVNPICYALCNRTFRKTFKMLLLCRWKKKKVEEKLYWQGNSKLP

[7] = target: T3, Leukotriene C4 synthase (Cavia porcellus, UniProt A6XA80); assay type: tissue-based, Lung
T3 sequence (A6XA80 whole entry): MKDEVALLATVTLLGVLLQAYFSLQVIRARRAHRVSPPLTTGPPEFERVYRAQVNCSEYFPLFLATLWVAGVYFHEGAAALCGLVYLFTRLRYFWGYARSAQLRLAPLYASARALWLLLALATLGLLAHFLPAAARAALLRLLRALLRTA

Estrogen receptor beta, sequence (Q92731 whole entry): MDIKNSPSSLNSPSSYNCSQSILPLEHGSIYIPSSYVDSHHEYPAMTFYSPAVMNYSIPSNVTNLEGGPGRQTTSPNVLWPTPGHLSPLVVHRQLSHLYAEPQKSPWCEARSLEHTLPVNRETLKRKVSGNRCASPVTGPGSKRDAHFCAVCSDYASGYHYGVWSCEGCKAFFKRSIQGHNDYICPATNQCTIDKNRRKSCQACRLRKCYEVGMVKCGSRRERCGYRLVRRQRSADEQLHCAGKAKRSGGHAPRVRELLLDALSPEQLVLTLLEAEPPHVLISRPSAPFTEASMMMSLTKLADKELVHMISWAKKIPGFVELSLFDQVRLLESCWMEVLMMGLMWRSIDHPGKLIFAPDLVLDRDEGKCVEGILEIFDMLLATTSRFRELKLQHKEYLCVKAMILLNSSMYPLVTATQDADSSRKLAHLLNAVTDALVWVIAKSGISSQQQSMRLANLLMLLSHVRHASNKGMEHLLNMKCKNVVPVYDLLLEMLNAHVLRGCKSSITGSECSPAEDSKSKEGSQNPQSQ

Molecule | IC50 [1] | Ki [1] | IC50 [2] | IC50 ([3]; platelet) | IC50 [4] | IC50 [5] | IC50 ([6]; cho-k1) | IC50 [7] | IC50 ([3]; read-out: IC50) [nM] | IC50 ([5]; read-out: IC50) [nM] | Ki ([5]; read-out: Ki) [nM] | IC50 ([6]; read-out: IC50) [nM] | Ki ([6]; read-out: Ki) [nM] | Ki [2] | Ki ([3]; platelet) | Ki [4] | Ki [5] | Ki ([6]; cho-k1) | Ki [7]
CC(C)(Oc1ccc(C2CCCc3ccccc32)cc1)C(=O)O (stereo unspecified) [NAFENOPIN] | Not Active | Not Active | Not Active | Not Active | Not Active | Not Active | Not Active | Not Active |  |  |  |  |  |  |  |  |  |  | 
Oc1ccc(OCc2ccccc2)cc1 [MONOBENZONE] | Not Active | Not Active | Not Active |  | Not Active | Not Active | Not Active | Not Active | 1020 |  |  |  |  |  |  |  |  |  | 
COc1cccc2c1C(=O)c1c(O)c3c(c(O)c1C2=O)C[C@@](O)(C(=O)CO)C[C@@H]3O[C@H]1C[C@H](N)[C@@H](O)[C@H](C)O1 [EPIRUBICIN] | Not Active | Not Active | Not Active | Not Active | Not Active |  | Not Active | Not Active |  | 7940 | 1320 |  |  |  |  |  |  |  | 
CN(C)c1ccc(C(=C2C=CC(=[N+](C)C)C=C2)c2ccc(N(C)C)cc2)cc1.[Cl-] [GENTIAN VIOLET] | Not Active | Not Active | Not Active | Not Active | Not Active | Not Active |  | Not Active |  |  |  | 535 | 384 |  |  |  |  |  | 
CC(=O)Nc1ccc(O)cc1 [ACETAMINOPHEN] | Not Active | Not Active | Not Active | Not Active | Not Active | Not Active | Not Active | Not Active |  |  |  |  |  |  |  |  |  |  | 
CCCCN1CCCCC1C(=O)Nc1c(C)cccc1C.Cl (stereo unspecified) [BUPIVACAINE HYDROCHLORIDE] | Not Active | Not Active | Not Active | Not Active | Not Active | Not Active | Not Active | Not Active |  |  |  |  |  |  |  |  |  |  | 
Nc1ccn([C@@H]2CS[C@H](CO)O2)c(=O)n1 [LAMIVUDINE] | Not Active | Not Active | Not Active | Not Active | Not Active | Not Active | Not Active | Not Active |  |  |  |  |  |  |  |  |  |  | 
COP(=O)(OC)OC=C(Cl)Cl [DICHLORVOS] | Not Active | Not Active | Not Active | Not Active | Not Active | Not Active | Not Active | Not Active |  |  |  |  |  |  |  |  |  |  | 
CADMIUM DICHLORIDE | Not Active | Not Active | Not Active | Not Active | Not Active | Not Active | Not Active | Not Active |  |  |  |  |  | Not Active | Not Active | Not Active | Not Active | Not Active | Not Active
C[C@](O)(CS(=O)(=O)c1ccc(F)cc1)C(=O)Nc1ccc(C#N)c(C(F)(F)F)c1 [(R)-BICALUTAMIDE] | Not Active | Not Active | Not Active | Not Active | Not Active | Not Active | Not Active | Not Active |  |  |  |  |  |  |  |  |  |  | 
Cc1nccn1CC1CCc2c(c3ccccc3n2C)C1=O (stereo unspecified) [ONDANSETRON] | Not Active | Not Active | Not Active | Not Active | Not Active | Not Active | Not Active | Not Active |  |  |  |  |  |  |  |  |  |  | 
CCOC(=O)[C@H](CCc1ccccc1)N[C@H]1CCc2ccccc2N(CC(=O)O)C1=O [BENAZEPRIL] | Not Active | Not Active | Not Active | Not Active | Not Active | Not Active | Not Active | Not Active |  |  |  |  |  |  |  |  |  |  | 
CCCCOc1ccc(OCCCN2CCOCC2)cc1 [PRAMOXINE] | Not Active | Not Active | Not Active | Not Active | Not Active | Not Active | Not Active | Not Active |  |  |  |  |  |  |  |  |  |  | 
COc1cccc2c1C(=O)c1c(O)c3c(c(O)c1C2=O)C[C@@](O)(C(=O)CO)C[C@@H]3O[C@H]1C[C@H](N)[C@H](O)[C@H](C)O1 [DOXORUBICIN] | Not Active | Not Active | Not Active | Not Active | Not Active |  | Not Active | Not Active |  | 12500 | 2080 |  |  |  |  |  |  |  | 
CC(C)[C@H]1CC[C@H](C(=O)N[C@H](Cc2ccccc2)C(=O)O)CC1 [NATEGLINIDE] | Not Active | Not Active | Not Active | Not Active | Not Active | Not Active | Not Active | Not Active |  |  |  |  |  |  |  |  |  |  | 
CC(=O)Nc1cccc(O)c1 [METACETAMOL] | Not Active | Not Active | Not Active | Not Active | Not Active | Not Active | Not Active | Not Active |  |  |  |  |  |  |  |  |  |  | 
CCn1cc(C(=O)O)c(=O)c2cc(F)c(N3CCN(C)CC3)cc21 [PEFLOXACIN] | Not Active | Not Active | Not Active | Not Active | Not Active | Not Active | Not Active | Not Active |  |  |  |  |  |  |  |  |  |  | 
C[C@H]1O[C@@H](O[C@H]2[C@@H](O)C[C@H](O[C@H]3[C@@H](O)C[C@H](O[C@H]4CC[C@@]5(C)[C@H](CC[C@@H]6[C@@H]5CC[C@]5(C)[C@@H](C7=CC(=O)OC7)CC[C@]65O)C4)O[C@@H]3C)O[C@@H]2C)C[C@H](O)[C@@H]1O [DIGITOXIN] | Not Active | Not Active | Not Active | Not Active | Not Active | Not Active | Not Active | Not Active |  |  |  |  |  |  |  |  |  |  | 
S=C=Nc1cccc2ccccc12 [1-NAPHTHYLISOTHIOCYANATE] | Not Active | Not Active | Not Active | Not Active | Not Active | Not Active | Not Active | Not Active |  |  |  |  |  |  |  |  |  |  | 
CCOC(=O)C1=C(C)NC(C)=C(C(=O)OC)C1c1cccc([N+](=O)[O-])c1 (stereo unspecified) [NITRENDIPINE] | Not Active | Not Active | Not Active | Not Active | Not Active | Not Active | Not Active | Not Active |  |  |  |  |  |  |  |  |  |  | 
CC1=C(C(=O)O)N2C(=O)[C@@H](NC(=O)[C@H](N)c3ccccc3)[C@H]2SC1 [CEPHALEXIN ANHYDROUS] | Not Active | Not Active | Not Active | Not Active | Not Active | Not Active | Not Active | Not Active |  |  |  |  |  |  |  |  |  |  | 
CN(C)/N=N/c1[nH]cnc1C(N)=O [DACARBAZINE] | Not Active | Not Active | Not Active | Not Active | Not Active | Not Active | Not Active | Not Active |  |  |  |  |  |  |  |  |  |  | 
COc1ccc2c(c1)[C@]13CCCC[C@@H]1[C@H](C2)N(C)CC3 [DEXTROMETHORPHAN] | Not Active | Not Active | Not Active | Not Active | Not Active | Not Active | Not Active | Not Active |  |  |  |  |  |  |  |  |  |  | 
COc1ccccc1C(=O)N1CCC(Cc2ccccc2)CC1 | Not Active | Not Active | Not Active | Not Active | Not Active | Not Active | Not Active | Not Active |  |  |  |  |  |  |  |  |  |  | 
